Entries after “also recorded” stand apart in the source; their conditions may differ. Read-outs that look alike come from different tables or passages of the source.
Experiments:
[1] = test system: Staphylococcus aureus strains S14 and S39; test: MIC of cloxacillin (medium not stated); assay type: cell-based; details: for MIC: Staphylococcus aureus
Method: (§1) The determination of each minimum inhibitory concentration (MIC) of cloxacillin was measured conventionally by measuring the growth of each strain in 96-well microplates in the presence of concentrations of antibiotic by absorbance.

[2] = test system: Staphylococcus aureus strains S14 and S39; test: Confocal microscopy of bacterial adhesion to polystyrene well bottom; assay type: cell-based; details: for effect on adhesion / biofilm formation / effect on bacterial adhesion: 4 h; for effect on bacterial adhesion: strain S39
Method: Six-well polystyrene microplates of the same nature and with exactly the same properties as the microplates used in Example 1 (Antibiofilmogram®), i.e. Costar 6-well microplates, product code 3736. The 6-well microplates were used to obtain a sufficient surface area of biofilm formation for confocal microscopy observation. The concentrations corresponding to the MIC and MICb of the strains were tested. At the same time, controls in the absence of antibiotics, strains S14 and S39 were performed. After incubation for 4 h at 37° C. (similar to the conditions used in Example 1 (Antibiofilmogram®), the bottoms of the microplates were cut out and assembled with a glass slide in order to be able to proceed to the observation under confocal microscopy. The observation conditions were as follows: Objective: ×40; Zoom: ×2; Format: 2048×2048 pixels; Laser power; Zmax and Zmin: number of images in the stack; Size between each image: 0.42 μm. “Live/Dead” staining was performed. SYTO9 stains live (and dead) bacteria, while propidium iodide specifically stains dead bacteria. The result was obtained with an analysis of 2880 images (“Slices”).
The percentage of biofilm covering the bottom surface of the well bottom as a percentage of surface cover is shown on the vertical axis. In FIG. 2A, the density of S14 bacteria adhered to the bottom of the wells was shown and analyzed. […] In particular, from 10% to more than 20% of the bottom surface of the well was covered after 4 h of incubation, which is excessive to consider a use in a therapeutic treatment at this dose.

[3] = test system: Staphylococcus aureus strains S14 and S39; test: Implanted subcutaneous catheter infection model in mice; assay type: in vivo; details: 12 h, 24 h and 30 h
[4] = test system: clinical strains of Staphylococcus aureus; test: MIC of cloxacillin by growth (absorbance) in 96-well microplates, Mueller-Hinton medium; assay type: cell-based; details: for MIC: Staphylococcus aureus, read-out: MH MIC
Method: as §1
(§2) The MIC was measured in Mueller-Hinton medium (MH; reference medium for antibiotic susceptibility testing) and brain heart infusion (BHI) medium.

[5] = test system: clinical strains of Staphylococcus aureus; test: MIC of cloxacillin by growth (absorbance) in 96-well microplates, brain heart infusion (BHI) medium; assay type: cell-based
Method: as §1, §2

Cc1onc(-c2ccccc2Cl)c1C(=O)N[C@@H]1C(=O)N2[C@@H]1SC(C)(C)[C@@H]2C(=O)O [cloxacillin]
MIC ([1]; strain S14, read-out: minimum inhibitory concentration (MIC)): 0.25 µg/mL | MIC ([1]; strain S39, read-out: minimum inhibitory concentration (MIC)): 0.125 µg/mL | minimum inhibitory concentration (MIC) ([1]; strain S14): 0.125 µg/mL | minimum inhibitory concentration (MIC) ([1]; strain S39): 0.25 µg/mL | effect on adhesion / biofilm formation ([2]; strain S14, MIC dose (0.25 μg/mL)): allows a decrease in bacterial adhesion but does not inhibit it; also recorded: did not inhibit the adhesion | bottom surface of the well covered by bacteria ([2]; strain S14, MIC dose (0.25 μg/mL), 4 h incubation): 10% | effect on adhesion / biofilm formation ([2]; strain S14, MICb dose (2 μg/mL)): completely inhibit the adhesion | effect on adhesion / biofilm formation ([2]; strain S14, sub-MIC dose (0.125 μg/mL, 0.5 MIC)): no effect on biofilm formation; also recorded: did not inhibit the adhesion | effect on adhesion / biofilm formation ([2]; strain S14, sub-MICb dose (1 μg/mL)): completely inhibit the adhesion | effect on bacterial adhesion ([2]; MIC dose (0.125 μg/mL)): no effect on bacterial adhesion | effect on bacterial adhesion ([2]; MICb dose (6 μg/mL)): completely inhibit the adhesion | effect on bacterial adhesion ([2]; sub-MIC dose (1/2 MIC)): no effect on bacterial adhesion | effect on bacterial adhesion ([2]; sub-MICb dose (3 μg/mL)): completely inhibit the adhesion | bacteria attached to the implanted catheter (log CFU/g catheter) vs control ([3]; strain S14, MIC dose (5 mg/kg pre-infection, then 3 mg/kg every 2 h for 10 h, intraperitoneal)): ineffectiveness | bacteria attached to the implanted catheter (log CFU/g catheter) vs control ([3]; strain S14, MICb dose (30 mg/kg pre-infection, then 15 mg/kg every 2 h for 10 h, intraperitoneal)): statistically significant difference from control (***) | bacteria attached to the implanted catheter (log CFU/g catheter) vs control ([3]; strain S39, MIC dose (7 mg/kg pre-infection, then 4 mg/kg every 2 h for 10 h, intraperitoneal)): ineffectiveness | bacteria attached to the implanted catheter (log CFU/g catheter) vs control ([3]; strain S39, MICb dose (45 mg/kg pre-infection, then 25 mg/kg every 2 h for 10 h, intraperitoneal)): statistically significant difference from control (***) | MIC ([4]; strain S02): 0.125 µg/mL | MIC ([4]; strain S04): 0.25 µg/mL | MIC ([4]; strain S08): 0.25 µg/mL | MIC ([4]; strain S11): 0.5 µg/mL | MIC ([4]; strain S14): 0.25 µg/mL | MIC ([4]; strain S16): 0.25 µg/mL | MIC ([4]; strain S19): 0.5 µg/mL | MIC ([4]; strain S21): 0.25 µg/mL | MIC ([4]; strain S22): 0.5 µg/mL | MIC ([4]; strain S26): 0.25 µg/mL | MIC ([4]; strain S27): 0.25 µg/mL | MIC ([4]; strain S31): 0.25 µg/mL | MIC ([4]; strain S34): 0.5 µg/mL | MIC ([4]; strain S38): 0.5 µg/mL | MIC ([4]; strain S39): 0.5 µg/mL | MIC ([4]; strain S40): 0.5 µg/mL | MIC ([4]; strain S43): 0.25 µg/mL | MIC ([4]; strain S44): 0.25 µg/mL | MIC ([4]; strain S46): 0.25 µg/mL | MIC ([4]; strain S47): 0.25 µg/mL | MIC ([4]; strain S51): 0.25 µg/mL | MIC ([4]; strain S58): 0.25 µg/mL | MIC ([4]; strain S62): 0.25 µg/mL | MIC ([4]; strain S63): 0.25 µg/mL | MIC ([4]; strain S74): 0.25 µg/mL | MIC ([4]; strain S83): 0.125 µg/mL | MH MIC ([4]; strain S02): 0.125 µg/mL | MH MIC ([4]; strain S38): 0.5 µg/mL | MH MIC ([4]; strain S58): 0.25 µg/mL | MH MIC ([4]; strain S83): 0.125 µg/mL | MIC ([5]; strain S02): 0.25 µg/mL | MIC ([5]; strain S04): 0.5 µg/mL | MIC ([5]; strain S08): 0.5 µg/mL | MIC ([5]; strain S11): 0.5 µg/mL | MIC ([5]; strain S14): 0.25 µg/mL | MIC ([5]; strain S16): 0.5 µg/mL | MIC ([5]; strain S19): 0.5 µg/mL | MIC ([5]; strain S21): 0.5 µg/mL | MIC ([5]; strain S22): 0.5 µg/mL | MIC ([5]; strain S26): 0.25 µg/mL | MIC ([5]; strain S27): 0.25 µg/mL | MIC ([5]; strain S31): 0.5 µg/mL | MIC ([5]; strain S34): 0.5 µg/mL | MIC ([5]; strain S38): 0.5 µg/mL | MIC ([5]; strain S39): 0.125 µg/mL | MIC ([5]; strain S40): 0.5 µg/mL | MIC ([5]; strain S43): 0.25 µg/mL | MIC ([5]; strain S44): 0.5 µg/mL | MIC ([5]; strain S46): 0.125 µg/mL | MIC ([5]; strain S47): 0.25 µg/mL | MIC ([5]; strain S51): 0.25 µg/mL | MIC ([5]; strain S58): 0.25 µg/mL | MIC ([5]; strain S62): 0.5 µg/mL | MIC ([5]; strain S63): 0.25 µg/mL | MIC ([5]; strain S74): 0.25 µg/mL | MIC ([5]; strain S83): 0.125 µg/mL
